Measured values: US20250326834A1, “COMBINATION THERAPY OF CLAUDIN 18.2 ANTAGONIST AND PD-1/PD-L1 AXIS INHIBITOR” (SUZHOU TRANSCENTA THERAPEUTICS CO., LTD., priority 2021, published 2025)

Key:
[1] = system: CT26-CLDN18.2 syngeneic tumor; experiment: CT26-CLDN18.2 syngeneic tumor model, 18B10 and Atezolizumab; type: in vivo, BALB/c mice
From the text: CT26 is synergic mouse tumor model. CT26-CLDN18.2 was purchased from Kyinno (Cat #, KC-1195), which was stalely transfected with human CLDN18.2 expression. The tumor cells were routinely sub-cultured twice weekly by trypsin-EDTA treatment (Hyclone). The cells growing in an exponential growth phase were harvested and counted for tumor inoculation. Female SPF grade BALB/c mice were inoculated with 2×10^6 CT26-CLDN18.2 cells. Animal were selected and randomized to 4 groups (n=8) when tumors grow to 80-120 mm^3. Animals were then treated with either 10 mg/kg Isotype control, 10 mg/kg anti-CLDN18.2 antibody 18B10, 3 mg/kg anti-PD-L1 antibody Atezolizumab, or 10 mg/kg anti-CLDN18.2 antibody 18B10 and 3 mg/kg anti-PD-L1 antibody Atezolizumab twice a week for 3 weeks by i.p. injection. Tumor size was measured twice a week in two dimensions using a caliper (INSIZE) and the volume was expressed in mm^3 using the formula: V=0.5 a×b^2 where a and b are the long and short diameters of the tumor, respectively. Results were analyzed using Prism GraphPad and expressed as mean±S.E.M. Comparisons between two groups were made by T-test, and the difference is considered significant if p is *<0.05 and **<0.01.

[2] = system: MC38-CLDN18.2 syngeneic tumor; experiment: MC38-CLDN18.2 syngeneic tumor model, 18B10 and Atezolizumab; type: in vivo, C57BL/6 mice
From the text: MC38-CLDN18.2 was purchase from Kyinno (Cat #, KC-1449), which was stable transfected with human CLDN18.2 expression. The tumor cells were routinely sub-culture twice weekly by trypsin-EDTA treatment (Hyclone). The cells growing in an exponential growth phase were harvested and counted for tumor inoculation. Female SPF grade C57BL/6 mice were inoculated with 2×10^6 MC38-CLDN18.2 cells. Animal were selected and randomized to 4 groups (n=6) when tumors grow to 70-100 mm^3. Animals were then treated with 13 mg/kg Isotype control, 10 mg/kg anti-CLDN18.2 antibody 18B10, 3 mg/kg anti-PD-L1 antibody Atezolizumab, 10 mg/kg anti-CLDN18.2 antibody 18B10 and 3 mg/kg anti-PD-L1 antibody Atezolizumab twice a week for 4 weeks by i.p. injection. Tumor size was measured twice a week in two dimensions using a caliper (INSIZE) and the volume was expressed in mm^3 using the formula: V=0.5 a×b^2 where a and b are the long and short diameters of the tumor, respectively. Results were analyzed using Prism GraphPad and expressed as mean±S.E.M. Comparisons between two groups were made by T-test, and the difference is considered significant if p is *<0.05 and **<0.01.

[3] = system: CLDN18.2-expressing gastric tumor cell lines NUGC-4, KATOIII and SNU-620; experiment: Upregulation of PD-L1 expression on tumor cells by supernatant of target cell/PBMC co-culture, flow cytometry; type: cell-based; conditions: supernatant of target cell + human PBMC (E/T 40:1) with 30 μg/ml 18B10 (S3), or of target cell with 5 ng/ml IFN-γ (S4), 72 h
Procedure: In this assay, three different CLDN18.2-expressing gastric tumor cell lines, NUGC-4 (JCRB, Cat #JCRBB0834), KATOIII (ATCC, Cat #HTB-103) and SNU-620 (Cobioer, Cat #CBP60508), were used as target cell and added to the cell culture plate. No antibody, 30 μg/ml of anti-CLDN18.2 antibody 18B10, 30 μg/ml of isotype control hIgG1 or 5 ng/ml IFN-γ were added into the corresponding wells with the target cell. After the plate was co-cultured at 37° C. for 30 mins, human PBMC as the effector cell was added with a E/T ratio of 40:1. The plate was incubated at 37° C. for 72 hours. At the end of incubation, 100 μl of cell culture supernatant of each well was transferred to another cell culture plate with the same target cell planted. After the second plate was incubated at 37° C. for 72 hours, the target cells were collected and analyzed for PD-L1 expression by flowcytometry using mouse anti-human PD-L1 antibody (BD Pharmingen, Cat #557924). S1 stood for the supernatant of the target cell alone; S2 stood for the supernatant of the target cell and human PBMC with isotype control hIgG1; S3 stood for the supernatant of the target cell and human PBMC with anti-CLDN18.2 antibody 18B10; S4 stood for the supernatant of the target cell with IFN-γ.

[4] = 18B10 10 mg/kg, Atezolizumab 3 mg/kg

Atezolizumab [reference compound]
antitumor activity compared with isotype control [1, 4]: better antitumor activity compared with treatment with isotype control
TGI ([1]; Day 33, 18B10 10 mg/kg, Atezolizumab 3 mg/kg, i.p. twice a week for 3 weeks): 71.16%
Tumor size ([1]; Day 33, 18B10 10 mg/kg, Atezolizumab 3 mg/kg, i.p. twice a week for 3 weeks, mean ± S.E.M.): 1350.18 ± 366.69 mm^3
CR ([1]; Day 33, animals per group): 2/8
antitumor activity compared with isotype control [2, 4]: better antitumor activity compared with treatment with isotype control
TGI ([2]; Day 51, 18B10 10 mg/kg, Atezolizumab 3 mg/kg, i.p. twice a week for 4 weeks): 71.14%
Tumor size ([2]; Day 51, 18B10 10 mg/kg, Atezolizumab 3 mg/kg, i.p. twice a week for 4 weeks, mean ± S.E.M.): 1154.61 ± 526.35 mm^3
CR ([2]; Day 51, animals per group): 0/6

IFN-γ: IFN-γ, 5 ng/ml added to target cells as comparison (S4) [reference compound]
PD-L1 expression of target cells compared to S1 group (target cell alone) [3]: increased PD-L1 expression
